Source: ChEMBL document CHEMBL1156829 (Proc Natl Acad Sci U S A, 2008)

Assays:
[1] = NOVARTIS: Cytotoxicity against human hepatocellular carcinoma cell line (Huh7); format: toxicity, cell-based, Huh-7; settings: Huh7 cells (hepatocellular carcinoma cell line)
[2] = system: Plasmodium falciparum; assay: NOVARTIS: Inhibition of Plasmodium falciparum 3D7 (drug-susceptible) proliferation in erythrocyte-based infection assay; format: functional, organism-based; settings: Plasmodium falciparum, 3D7
[3] = system: Plasmodium falciparum; assay: NOVARTIS: Inhibition of Plasmodium falciparum W2 (drug-resistant) proliferation in erythrocyte-based infection assay; format: functional, organism-based; settings: Plasmodium falciparum, W2; read-out: EC50

Compound | CC50 [1] [nM] | EC50 [2] [nM] | EC50 [3] [nM]
COc1ccc(CNC2CCN(Cc3ccccc3)CC2)cc1OCc1ccccc1 | > 10000 | 1030 | 27.9
CCCn1c(SCC(=O)N2c3ccccc3CC2C)nc2c1c(=O)n(C)c(=O)n2C (configuration not stated) | > 10000 | > 1250 | < 27.1
N=C(NN=Cc1ccc([N+](=O)[O-])cc1)NN=Cc1ccc([N+](=O)[O-])cc1 | > 100000 | 280 | 271
FC(F)(F)c1cccc(NC(=S)N2CCSC2c2ccc(Br)cc2)c1 (configuration not stated) | 43300 | 217 | 116
Cc1ccccc1OCc1nnc(SCC(=O)Nc2ccc([N+](=O)[O-])cc2)n1C | > 10000 | > 1250 | 26.7
CCn1c(SCC(=O)Nc2cccc(C)c2)nnc1-c1ccccc1 | > 10000 | > 1250 | 26.7
CCOc1cc(-c2nc3c(=O)n(C)c(=O)nc-3n(C)n2)ccc1OC(C)C | > 10000 | 333 | 29.3
Cc1ccc(C2CC(C(F)(F)F)n3ncc(C(=O)Nc4ccc(OC(F)(F)F)cc4)c3N2)cc1 (configuration not stated) | > 100000 | 282 | 293
Oc1c(C(Nc2ccccn2)c2ccc(Br)cc2)ccc2cccnc12 (configuration not stated) | > 100000 | 358 | 284
COc1cccc(C(=O)NC(c2ccc(Cl)cc2)c2cc(Cl)c3cccnc3c2O)c1 (configuration not stated) | > 100000 | 2310 | 268
CCC(CC)CN1CCC(O)(c2ccc3oc(C(=O)Nc4ccc5c(c4)OCO5)cc3c2)CC1 | > 100000 | 246 | 268
O=C(ON(C(=O)c1ccc(F)cc1)C1C2CC3CC(C2)CC1C3)c1ccc(F)cc1 (configuration not stated) | > 10000 | > 1250 | 26.7
CC(=O)C(=NNc1cc(C(F)(F)F)cc(C(F)(F)F)c1)C(C)=O | > 10000 | > 1250 | 26.7
CCCc1cc(O)c2c3c(c(=O)oc2c1)CN(C)CC3 | > 100000 | 554 | 294
Cc1ccc(Cn2c(N3CCC(C(=O)NCc4cccs4)CC3)nc3ccccc32)cc1 | > 100000 | 529 | 271
COc1ccc(C2=C(Nc3ccc(C)c(C)c3)c3ccccc3C2=O)cc1 | > 100000 | 297 | 281
CCc1c(C(C)S(=O)(=O)c2ccc(C)cc2)[nH]c(=O)n1-c1ccc(OC(F)(F)F)cc1 (configuration not stated) | 5750 | 47.8 | 16.2

Compound | CC50 [1] [nM] | EC50 [2] [nM] | EC50 [3] [nM]
Cc1ccc(NC(=O)c2c(I)cnn2C)cc1[N+](=O)[O-] | > 100000 | 192 | 280
CCN(CC)c1nc(NN=Cc2cccc([N+](=O)[O-])c2OC)nc(Nc2ccccc2)n1 | > 100000 | 244 | 294
COc1ccc2c(c1)C=C([C@@H]1C[C@H]3CN(c4ccccc4)C(=O)[C@]34CCCN14)CO2 | > 100000 | 588 | 289
Clc1ccc2c(c1)CN(C1CCCCC1)CO2 | 71000 | 2300 | 200
Cc1ccccc1Cc1c(C)nc2c(C#N)c(C)nn2c1C | > 100000 | 282 | 273
CCOc1cc(C2C(C(=O)OC)=CNC=C2C(=O)OC)cc(Br)c1OCC | > 100000 | 388 | 277
CCOc1cc(C2CC(=O)NC3=C2C(=O)CC(c2ccc(OC)cc2)C3)cc(Cl)c1O (configuration not stated) | > 100000 | 612 | 285
O=C(CS(=O)(=O)c1ccc(C(F)(F)F)cn1)NNS(=O)(=O)c1ccc(Cl)cc1 | > 10000 | > 1340 | 26.7
CCOC(=O)C1=C(c2ccccc2)N=c2sc(=Cc3ccccc3O)c(=O)n2C1c1c(OC)ccc2ccccc12 (configuration not stated) | > 100000 | 2320 | 271
CCC(c1nc2ccccc2c(=O)n1-c1ccc(Cl)cc1)N(Cc1ccccc1)C(=O)Nc1c(C(C)C)cccc1C(C)C (configuration not stated) | > 10000 | > 1420 | 26.7
COc1ccc(Cl)cc1NC(=O)C1c2ccccc2C(=O)N(CC(C)C)C1c1cccs1 (configuration not stated) | > 100000 | 837 | 272
CC(C)c1cccc(C(C)C)c1NC(=O)N(Cc1ccccc1)C(C)c1nc2ccccc2c(=O)n1-c1ccc(Br)cc1 (configuration not stated) | > 10000 | 1320 | 28
O=C(Nc1cccc(OC(=O)c2ccc([N+](=O)[O-])cc2)c1)c1ccc([N+](=O)[O-])cc1 | > 100000 | > 12500 | 270
Cc1ccccc1Cn1c(=N)n(CC(O)c2ccc(Cl)c(Cl)c2)c2ccccc21 (configuration not stated) | 13300 | 135 | 38.4
CCn1c(CSc2nc(C)cc(C)n2)nnc1SCC(N)=O | > 10000 | > 1250 | 26.7
CC(=O)N(C1=C(N2CCCC2)C(=O)c2ccccc2C1=O)c1ccccc1C | 11500 | 83.9 | 31.9
CCCCNCCN1CCN(c2ccc(OC)cc2)C[C@@H]1c1ccccc1 | > 10000 | > 1280 | 26.7
